Laboratory results as given in US20220160817A1, “Pharmaceutical composition with improved stability” (Foresee Pharmaceuticals Co., Ltd., priority 2014, published 2022).

Legend:
Assay type in all cases: physicochemical
[1] = FMOC-SER-OH / FMOC-ARG-OH reaction with D,L-lactide monomers in NMP at 25° C., HPLC; conditions: 25% D,L-lactide in NMP
Method: All impurity structures identified have polymers reacting with the arginine group of the peptide. In the present invention, it is shown that the conjugates of lactide monomers reacting with the serine group of the peptide are the more significant impurities generated, that were not observed previously. To test the generation of leuprolide conjugates with lactide monomers, FMOC-ARG-OH or FMOC-SER-OH was dissolved in NMP. To this solution D,L-lactide monomers were added. The solution was mixed well by vortexing. 5 uL of the solution was added to an HPLC vial with 0.5 mL of acetonitrile and 0.5 mL stability buffer (0.6% TEA/0.3% H3PO4 in water, pH=3.0). The sample was then analyzed by HPLC. The remaining solutions were stored in a glass vial at 25° C. Samples were taken at specified time points and analyzed by UPLC.

[2] = L-lactide monomer impurity generation with leuprolide mesylate in NMP, HPLC; conditions: NMP with 10% L-lactide, 3 hours at 37° C.
[3] = Octreotide mesylate with excess methane sulfonic acid in solvent with added lactide monomer; conditions: pH of the salt solution 2.4, pharmaceutically acceptable solvent
Description: U.S. Pat. No. 8,343,513 further discloses that in order to reduce the impurities generation, low molecular weight polymers with high acid numbers and significant amount of low pKa acid additives or oligomers have to be used. Such acidic dispersed phases are not suitable for human parenteral use due to tissue irritation from the low pH. […] In fact more impurities are generated for the solution with excess acid than the one without.

With `NC(N)=NCCC[C@H](NC(=O)OCC1c2ccccc2-c2ccccc21)C(=O)O` [FMOC-ARG-OH] as the molecule, how does the “impurities generated with D,L-lactide monomers” value (shortened to “impurities generated”) ([1]; 1 day at 25° C.) read?
The value was “less than that seen with the serine”.

Which “impurities generated” value ([1]; 3 hours at 25° C.) does the source give for `O=C(N[C@@H](CO)C(=O)O)OCC1c2ccccc2-c2ccccc21` [FMOC-SER-OH] here?
Its value is “very little impurities”.

What about the “impurities generated” value ([1]; 1 day at 25° C.) of the same molecule?
The value was “significant amount of impurities”.

Which “lactide-related impurity peak shape in chromatogram” value [2] does the source give for leuprolide mesylate [LAMS] here?
Its value is “single peak”.

For octreotide mesylate, which “stability of the peptide with added lactide monomer” value [3] is on record?
The value was “highly unstable”.
